Source: patent publication US20250179057A1, “MEK IMMUNE ONCOLOGY INHIBITORS AND THERAPEUTIC USES THEREOF” (Immuneering Corporation, priority 2022, published 2025)
Structures can show the parent of a compound that is named as a salt.

How the values were obtained:
[1] = Plasma stability, rat plasma (Wistar Han / wistar hannover; Table 5 head SD Rat); type: in vitro ADME; conditions: wistar hannover rat plasma, 2 μM, anti-coagulant K2-EDTA; for half-life at 2 μM: pH 7.4, read-out: T1/2; for % Remaining at T120: 120 min
Method: (§1) Individual stock solutions of propantheline and lovastatin were prepared at 10 mM in DMSO and were further diluted to 2 mM with DMSO.
(§2) Frozen matrices (Balb/c mouse, Wistar Han rat, Beagle dog, and human plasma containing K2EDTA as anti-coagulant) were thawed and centrifuged at 3100 rpm for 10 minutes at 4° C. to remove particulates. The lipid layer was then removed, and the supernatant was transferred to a new tube without disturbing the pellet. After the matrices were incubated at 37° C. for at least 10 minutes, the pH of each matrix was adjusted to pH 7.4, using 10% phosphoric acid or 1N sodium hydroxide as necessary. Test and control article stock solutions were spiked (2 μL) into matrix (1.998 mL) and mixed to final assay concentration of […]. Duplicate 30-μL aliquots of spiked plasma were transferred to matrix tubes in 96-well plate immediately after spiking for timepoints of 0, 30, 60, 120, 240, and 360 minutes. These tubes were then incubated at 37° C. with shaking and at each timepoint, the corresponding tubes containing samples were quenched with 180 μL of cold acetonitrile containing the internal standards. The quenched samples were vortex-mixed briefly and stored refrigerated. After the final time point (360 minutes), the plates with all quenched samples were vortex-mixed for 10 minutes and then centrifuged at 3100 rpm for 10 minutes at 4° C. to sediment the precipitated protein. The supernatant (50 μL) was transferred to a clean 96-well plate and diluted with 100 μL of water. The plates were stored refrigerated until analysis.
(§3) Data Analysis: Peak area ratios for IS-normalized test article and control article counts were used to calculate the percent remaining relative to the time zero (T0) value. As appropriate, results were plotted and further analyzed to calculate half-life (T1/2) values.
(§4) Mean peak area ratios were used to calculate the % remaining relative to the T0 value:
(§5) In this study, human, cynomolgus monkey, beagle dog, wistar hannover rat, and balb/c plasma stability was determined. Table 28 describes the results of the human plasma stability at 2 μM concentration and anti-coagulant K2-EDTA from 10 to 120 min. Table 29 describes the results of the cynomolgus monkey plasma stability at 2 μM concentration and anti-coagulant K2-EDTA. Table 30 describes the results of the beagle dog plasma stability at 2 μM concentration and anti-coagulant K2-EDTA. Table 31 describes the results of the wistar hannover rat plasma stability at 2 μM concentration and anti-coagulant K2-EDTA. Table 32 describes the results of the balb/c plasma stability at 2 μM concentration and anti-coagulant K2-EDTA.

[2] = target: CYP2C9 (Homo sapiens, UniProt P11712); experiment: CYP450 panel inhibition in human liver microsomes, 2C9 (diclofenac); conditions: for inhibition at 30 min, 10 µM: microsomes; for CYP-2C9 (Diclofenac) mean percentage CYP inhibition: human liver microsomes, substrate diclofenac
Description: The quenched samples were stored refrigerated.

[3] = test system: cynomolgus monkey hepatocytes; experiment: Hepatocyte stability, cynomolgus monkey; type: in vitro ADME; conditions: 2 μM, 0.5 million cells/ml
Method: In this study, human, cynomolgus monkey, beagle dog, wistar hannover rat, and balb/c mouse hepatocyle stability was determined.

[4] = test system: Caco-2 cells; experiment: Caco-2 bidirectional permeability (absorption & efflux); conditions: Example 47
[5] = Plasma stability, mouse plasma (Balb/c; Table 5 head CD-1 Mouse); type: in vitro ADME; conditions: balb/c plasma, 2 μM, anti-coagulant K2-EDTA; for % Remaining at T120: 120 min; for half-life at 2 μM: mouse, pH 7.4, read-out: T1/2
Method: as §1, §2, §3, §4, §5

[6] = Plasma stability, beagle dog plasma (K2EDTA); type: in vitro ADME; conditions: 2 μM; for % Remaining at T120 / half-life at 2 μM / T1/2: beagle dog plasma, anti-coagulant K2-EDTA; for % Remaining at T120: 120 min; for half-life at 2 μM: read-out: T1/2
Method: as §1, §2, §3, §4, §5

Chain of CYP2C9 (P11712 whole entry): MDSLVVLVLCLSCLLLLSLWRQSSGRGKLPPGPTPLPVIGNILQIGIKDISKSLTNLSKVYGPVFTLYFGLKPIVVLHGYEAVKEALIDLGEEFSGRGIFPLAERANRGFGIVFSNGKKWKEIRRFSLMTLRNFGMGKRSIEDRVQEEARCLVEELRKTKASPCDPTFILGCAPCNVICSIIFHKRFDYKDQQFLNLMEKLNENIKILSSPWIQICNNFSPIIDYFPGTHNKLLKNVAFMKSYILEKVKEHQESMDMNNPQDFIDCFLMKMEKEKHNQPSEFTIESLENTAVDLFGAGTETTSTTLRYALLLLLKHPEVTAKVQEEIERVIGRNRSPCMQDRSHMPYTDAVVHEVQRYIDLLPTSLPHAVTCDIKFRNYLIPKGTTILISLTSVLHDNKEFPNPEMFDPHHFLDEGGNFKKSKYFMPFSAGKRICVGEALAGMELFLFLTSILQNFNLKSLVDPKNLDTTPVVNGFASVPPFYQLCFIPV

Row | Structure (SMILES) | half-life at 2 μM [1] [h] | % Remaining at T120 [1] [%] | % Remaining At T120 [3] [%] | A − B Permeability Ranking [4] | % Remaining at T120 [5] [%] | half-life at 2 μM [5] [h] | % Remaining at T120 [6] [%] | half-life at 2 μM ([6]; pH 7.4) [h] | T1/2 [1] [h] | CYP-2C9 (Diclofenac) mean percentage CYP inhibition ([2]; 10 μM) [%] | CLint (L/hr/kg) [3] [L/h/kg] | CLint (mL/min/kg) [3] [mL/min/kg] | T1/2 [3] [h] | Mean Efflux Ratio [4] | Mean Papp A − B (10^−6 cm/s) [4] | Mean Papp B − A (10^−6 cm/s) [4] | T1/2 [5] [h] | T1/2 [6] [h] | also measured
1 | CNS(=O)(=O)Nc1cccc(Cc2c(CN3CCNCC3)c3ccc(OC(=O)N(C)C)cc3oc2=O)c1Cl [Compound 246, 3-(2-chloro-3-((N-methylsulfamoyl)amino)benzyl)-2-oxo-4-(piperazin-1-ylmethyl)-2H-chromen-7-yl dimethylcarbamate hydrochloride] | > 2 | 99.3 | 81.4 | Higher | 94.5 | 18.5 | 100.2 | 60.5 |  |  |  |  |  |  |  |  |  |  | inhibition at 30 min, 10 µM ([2]; human, pH 7.4): 19.4%
2 | CCS(=O)(=O)Nc1cccc(Cc2c(CN(C)C)c3ccc(OC(=O)N(C)C)cc3oc2=O)c1F [Compound 120] |  | 96.8 | 31.6 | Higher | 94.2 |  | 100.9 |  | 42.68 | 11.1 | 4.67 | 77.8 | 1.2 | 0.567 | 21.9 10^−6 cm/s | 12.4 10^−6 cm/s | 238.68 | >2 | 
3 | CNS(=O)(=O)Nc1cccc(Cc2c(CN3CCNCC3)c3cc(F)c(OC(=O)N(C)C)cc3oc2=O)c1F [Compound 134] |  | 95.2 | 78.5 | Higher | 100.2 |  | 89.9 |  | 21.15 | 20.5 | 0.980 | 16.3 | 5.73 | 2.01 | 3.99 10^−6 cm/s | 8.08 10^−6 cm/s | 46.85 | 10.4 | 
4 | CCCS(=O)(=O)Nc1cccc(Cc2c(CN3CCNCC3)c3cc(Cl)c(OC(=O)N(C)C)cc3oc2=O)c1F [Compound 167] |  | 106.9 | 29.0 | Lower | 100.5 |  | 106.2 |  | >2 | 71.8 | 5.02 | 83.7 | 1.12 | 23.2 | 0.845 10^−6 cm/s | 19.6 10^−6 cm/s | >2 | >2 | 
5 | CCS(=O)(=O)Nc1cccc(Cc2c(CN3CCNCC3)c3cc(Cl)c(OC(=O)N(C)C)cc3oc2=O)c1Cl [Compound 257, 6-chloro-3-(2-chloro-3-(ethylsulfonamido)benzyl)-2-oxo-4-(piperazin-1-ylmethyl)-2H-chromen-7-yl dimethylcarbamate hydrochloride] | 16.9 | 91.5 | 62.8 | Higher | 87.5 | 9.77 | 100.9 | > 2 |  |  |  |  |  |  |  |  |  |  | inhibition at 30 min, 10 µM ([2]; human, pH 7.4): 53.7%
6 | CNS(=O)(=O)Nc1nccc(Cc2c(C)c3ccc(Oc4ncccn4)cc3oc2=O)c1F [Reference-2, reference compound] |  |  |  |  |  |  |  |  |  |  |  |  |  |  |  |  |  |  | Beagle Dog (% Reamining @2 hour) ([6]; plasma, 2 hour): 99.8%
7 | CCN(C)Cc1c(Cc2cccc(NS(=O)(=O)NC)c2F)c(=O)oc2cc(OC(=O)N(C)C)c(F)cc12 [Compound 238] | 29.8 | 95.5 | 23.3 | Higher | 57.5 | 2.67 | 93.8 | 23.2 |  |  |  |  |  |  |  |  |  |  | 
8 | Cn1cnc2c(F)c(Nc3ccc(Br)cc3Cl)c(C(=O)NOCCO)cc21 [Reference-1, Selumetinib] |  |  |  |  |  |  |  |  |  |  |  |  |  |  |  |  |  |  | CYP2C9 inhibition ([2]; human, 30 min, 10 μM, pH 7.4): 14.1%; Beagle Dog (% Reamining @2 hour) ([6]; beagle, dog, 2 h, pH 7.4): 100.4%
